Columns and labels:
Format in all cases: in vivo
[1] = system: birds-eye speedwell; test: Test Example 4: weedkilling efficacy by foliar treatment; p: birds-eye speedwell; conditions: treatment dosage 315 g/ha
Summary of the method: (§1)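 Seeds are spot-sown into sterilized diluvial soil and covered with about 1.5 cm of soil. After 14 days' greenhouse growth at 25 to 30° C, plants are sprayed on stems and leaves with diluted emulsion at the stated g/ha rate, then scored at 3 weeks.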

[2] = system: Indian mallow; test: Test Example 3: weedkilling efficacy through soil treatment; K: Indian mallow; conditions: treatment dosage 315 g/ha
Summary of the method: (§2)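 Crop and weed responses were judged three weeks after a uniform surface spray of the water-diluted emulsion at the given g/ha rate. Seeds sat beneath about 1.5 cm of sterilized diluvial soil, and boxes stood in a greenhouse at 25 to 30° C.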

[3] = system: redroot pigweed; test: Test Example 4: weedkilling efficacy by foliar treatment; L: redroot pigweed; conditions: treatment dosage 315 g/ha
Summary of the method: as §1

[4] = system: wheat; test: Test Example 3: soil treatment, effect on crop; e: wheat; conditions: treatment dosage 315 g/ha
Summary of the method: as §2

[5] = system: crabgrass; test: Test Example 4: weedkilling efficacy by foliar treatment; D: crabgrass; conditions: treatment dosage 315 g/ha
Summary of the method: as §1

[6] = system: corn; test: Test Example 4: foliar treatment, effect on crop; c: corn; conditions: treatment dosage 315 g/ha
Summary of the method: as §1

[7] = system: wheat; test: Test Example 4: foliar treatment, effect on crop; e: wheat; conditions: treatment dosage 315 g/ha
Summary of the method: as §1

[8] = system: fig-leafed goosefoot; test: Test Example 4: weedkilling efficacy by foliar treatment; M: fig-leafed goosefoot; conditions: treatment dosage 315 g/ha
Summary of the method: as §1

[9] = system: transplanted rice; test: Test Example 1: preemergent weed treatment in the submerged state, effect on crop; a: transplanted rice; conditions: treatment dosage 252 g/ha
Summary of the method: (§3)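 Submerged pre-emergence treatment, water-surface application of compound emulsion at g/ha dosages; 4 cm flooded alluvial soil, weeds sown and 2.5-leaf rice transplanted same day. Rated after 3 weeks, greenhouse.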

[10] = system: green foxtail; test: Test Example 3: weedkilling efficacy through soil treatment; E: green foxtail; conditions: treatment dosage 315 g/ha
Summary of the method: as §2

[11] = system: corn; test: Test Example 3: soil treatment, effect on crop; c: corn; conditions: treatment dosage 315 g/ha
Summary of the method: as §2

[12] = system: oval-leafed pondweed; test: Test Example 2: weedkilling efficacy, growth period weed treatment in the submerged state; C: oval-leafed pondweed; conditions: treatment dosage 252 g/ha
Summary of the method: (§4)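 Seedlings at 1-2 leaves in 4 cm-deep submerged alluvial soil received emulsion formulations on the water surface, dosed per hectare; effects were judged 3 weeks on.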

[13] = system: beet; test: Test Example 3: soil treatment, effect on crop; f: beet; conditions: treatment dosage 315 g/ha
Summary of the method: as §2

[14] = system: wild oat; test: Test Example 4: weedkilling efficacy by foliar treatment; G: wild oat; conditions: treatment dosage 315 g/ha
Summary of the method: as §1

[15] = system: Italian ryegrass; test: Test Example 4: weedkilling efficacy by foliar treatment; I: Italian ryegrass; conditions: treatment dosage 315 g/ha
Summary of the method: as §1

[16] = system: black-grass; test: Test Example 4: weedkilling efficacy by foliar treatment; H: black-grass; conditions: treatment dosage 315 g/ha
Summary of the method: as §1

[17] = system: chickweed; test: Test Example 3: weedkilling efficacy through soil treatment; N: chickweed; conditions: treatment dosage 315 g/ha
Summary of the method: as §2

[18] = system: Italian ryegrass; test: Test Example 3: weedkilling efficacy through soil treatment; I: Italian ryegrass; conditions: treatment dosage 315 g/ha
Summary of the method: as §2

[19] = system: green foxtail; test: Test Example 4: weedkilling efficacy by foliar treatment; E: green foxtail; conditions: treatment dosage 315 g/ha
Summary of the method: as §1

[20] = system: bulrush; test: Test Example 2: weedkilling efficacy, growth period weed treatment in the submerged state; B: bulrush; conditions: treatment dosage 252 g/ha
Summary of the method: as §4

[21] = system: birds-eye speedwell; test: Test Example 3: weedkilling efficacy through soil treatment; p: birds-eye speedwell; conditions: treatment dosage 315 g/ha
Summary of the method: as §2

[22] = system: oval-leafed pondweed; test: Test Example 1: weedkilling efficacy, preemergent weed treatment in the submerged state; C: oval-leafed pondweed; conditions: treatment dosage 252 g/ha
Summary of the method: as §3

[23] = system: chickweed; test: Test Example 4: weedkilling efficacy by foliar treatment; N: chickweed; conditions: treatment dosage 315 g/ha
Summary of the method: as §1

[24] = system: redroot pigweed; test: Test Example 3: weedkilling efficacy through soil treatment; L: redroot pigweed; conditions: treatment dosage 315 g/ha
Summary of the method: as §2

[25] = system: bulrush; test: Test Example 1: weedkilling efficacy, preemergent weed treatment in the submerged state; B: bulrush; conditions: treatment dosage 252 g/ha
Summary of the method: as §3

[26] = system: directly sown rice; test: Test Example 3: soil treatment, effect on crop; b: directly sown rice; conditions: treatment dosage 315 g/ha
Summary of the method: as §2

[27] = system: soybean; test: Test Example 3: soil treatment, effect on crop; d: soybean; conditions: treatment dosage 315 g/ha
Summary of the method: as §2

[28] = system: catchweed; test: Test Example 4: weedkilling efficacy by foliar treatment; O: catchweed; conditions: treatment dosage 315 g/ha
Summary of the method: as §1

[29] = system: barnyard grass; test: Test Example 1: weedkilling efficacy, preemergent weed treatment in the submerged state; A: barnyard grass; conditions: treatment dosage 252 g/ha
Summary of the method: as §3

[30] = system: black-grass; test: Test Example 3: weedkilling efficacy through soil treatment; H: black-grass; conditions: treatment dosage 315 g/ha
Summary of the method: as §2

[31] = system: wild oat; test: Test Example 3: weedkilling efficacy through soil treatment; G: wild oat; conditions: treatment dosage 315 g/ha
Summary of the method: as §2

[32] = system: directly sown rice; test: Test Example 4: foliar treatment, effect on crop; b: directly sown rice; conditions: treatment dosage 315 g/ha
Summary of the method: as §1

[33] = system: catchweed; test: Test Example 3: weedkilling efficacy through soil treatment; O: catchweed; conditions: treatment dosage 315 g/ha
Summary of the method: as §2

[34] = system: soybean; test: Test Example 4: foliar treatment, effect on crop; d: soybean; conditions: treatment dosage 315 g/ha
Summary of the method: as §1

[35] = system: barnyard grass; test: Test Example 2: weedkilling efficacy, growth period weed treatment in the submerged state; A: barnyard grass; conditions: treatment dosage 252 g/ha
Summary of the method: as §4

[36] = system: Indian mallow; test: Test Example 4: weedkilling efficacy by foliar treatment; K: Indian mallow; conditions: treatment dosage 315 g/ha
Summary of the method: as §1

[37] = system: crabgrass; test: Test Example 3: weedkilling efficacy through soil treatment; D: crabgrass; conditions: treatment dosage 315 g/ha
Summary of the method: as §2

[38] = system: beet; test: Test Example 4: foliar treatment, effect on crop; f: beet; conditions: treatment dosage 315 g/ha
Summary of the method: as §1

[39] = system: fig-leafed goosefoot; test: Test Example 3: weedkilling efficacy through soil treatment; M: fig-leafed goosefoot; conditions: treatment dosage 315 g/ha
Summary of the method: as §2

Row | SMILES | P (birds-eye speedwell) weedkilling efficacy grade [1] | K (Indian mallow) weedkilling efficacy grade [2] | L (redroot pigweed) weedkilling efficacy grade [3] | e (wheat) effect on crop grade [4] | D (crabgrass) weedkilling efficacy grade [5] | c (corn) effect on crop grade [6] | e (wheat) effect on crop grade [7] | M (fig-leafed goosefoot) weedkilling efficacy grade [8] | a (transplanted rice) effect on crop grade [9] | E (green foxtail) weedkilling efficacy grade [10] | c (corn) effect on crop grade [11] | C (oval-leafed pondweed) weedkilling efficacy grade [12] | f (beet) effect on crop grade [13] | G (wild oat) weedkilling efficacy grade [14] | I (Italian ryegrass) weedkilling efficacy grade [15] | H (black-grass) weedkilling efficacy grade [16] | N (chickweed) weedkilling efficacy grade [17] | I (Italian ryegrass) weedkilling efficacy grade [18] | E (green foxtail) weedkilling efficacy grade [19] | B (bulrush) weedkilling efficacy grade [20] | also measured
1 | CC1=C(c2ccccc2)C(=O)N(C(C)(C)C(=O)Nc2nnc(C(F)(F)F)s2)CO1 [B-1-10] | 4 (weed kill ratio 70% or more, less than 90%) | 3 (weed kill ratio 40% or more, less than 70%) | 2 (weed kill ratio 20% or more, less than 40%) | 0 (weed kill ratio 5% or less (practically no effect)) | 5 (weed kill ratio 90% or more, (practically complete withering)) | 4 (weed kill ratio 70% or more, less than 90%) | 0 (weed kill ratio 5% or less (practically no effect)) | 3 (weed kill ratio 40% or more, less than 70%) | 3 (weed kill ratio 40% or more, less than 70%) | 5 (weed kill ratio 90% or more, (practically complete withering)) | 3 (weed kill ratio 40% or more, less than 70%) | 5 (weed kill ratio 90% or more, (practically complete withering)) | 3 (weed kill ratio 40% or more, less than 70%) | 2 (weed kill ratio 20% or more, less than 40%) | 0 (weed kill ratio 5% or less (practically no effect)) | 4 (weed kill ratio 70% or more, less than 90%) | 2 (weed kill ratio 20% or more, less than 40%) | 3 (weed kill ratio 40% or more, less than 70%) | 5 (weed kill ratio 90% or more, (practically complete withering)) | 5 (weed kill ratio 90% or more, (practically complete withering)) | P (birds-eye speedwell) weedkilling efficacy grade [21]: 4 (weed kill ratio 70% or more, less than 90%); C (oval-leafed pondweed) weedkilling efficacy grade [22]: 5 (weed kill ratio 90% or more, (practically complete withering)); N (chickweed) weedkilling efficacy grade [23]: 2 (weed kill ratio 20% or more, less than 40%); L (redroot pigweed) weedkilling efficacy grade [24]: 3 (weed kill ratio 40% or more, less than 70%); B (bulrush) weedkilling efficacy grade [25]: 5 (weed kill ratio 90% or more, (practically complete withering)); b (directly sown rice) effect on crop grade [26]: 5 (weed kill ratio 90% or more, (practically complete withering)); d (soybean) effect on crop grade [27]: 0 (weed kill ratio 5% or less (practically no effect)); O (catchweed) weedkilling efficacy grade [28]: 2 (weed kill ratio 20% or more, less than 40%); A (barnyard grass) weedkilling efficacy grade [29]: 5 (weed kill ratio 90% or more, (practically complete withering)); H (black-grass) weedkilling efficacy grade [30]: 5 (weed kill ratio 90% or more, (practically complete withering)); G (wild oat) weedkilling efficacy grade [31]: 4 (weed kill ratio 70% or more, less than 90%); b (directly sown rice) effect on crop grade [32]: 5 (weed kill ratio 90% or more, (practically complete withering)); O (catchweed) weedkilling efficacy grade [33]: 0 (weed kill ratio 5% or less (practically no effect)); d (soybean) effect on crop grade [34]: 2 (weed kill ratio 20% or more, less than 40%); A (barnyard grass) weedkilling efficacy grade [35]: 4 (weed kill ratio 70% or more, less than 90%); K (Indian mallow) weedkilling efficacy grade [36]: 4 (weed kill ratio 70% or more, less than 90%); D (crabgrass) weedkilling efficacy grade [37]: 5 (weed kill ratio 90% or more, (practically complete withering)); f (beet) effect on crop grade [38]: 2 (weed kill ratio 20% or more, less than 40%); M (fig-leafed goosefoot) weedkilling efficacy grade [39]: 3 (weed kill ratio 40% or more, less than 70%)
2 | CC1=C(c2cccnc2F)C(=O)N(C(C)(C)C(=O)Nc2cc(Br)ccn2)CO1 [B-2-09] | 4 (weed kill ratio 70% or more, less than 90%) | 0 (weed kill ratio 5% or less (practically no effect)) | 0 (weed kill ratio 5% or less (practically no effect)) | 0 (weed kill ratio 5% or less (practically no effect)) | 5 (weed kill ratio 90% or more, (practically complete withering)) | 0 (weed kill ratio 5% or less (practically no effect)) | 0 (weed kill ratio 5% or less (practically no effect)) | 4 (weed kill ratio 70% or more, less than 90%) | 1 (weed kill ratio 5% or more, less than 20%) | 5 (weed kill ratio 90% or more, (practically complete withering)) | 0 (weed kill ratio 5% or less (practically no effect)) | 3 (weed kill ratio 40% or more, less than 70%) | 1 (weed kill ratio 5% or more, less than 20%) | 0 (weed kill ratio 5% or less (practically no effect)) | 4 (weed kill ratio 70% or more, less than 90%) | 4 (weed kill ratio 70% or more, less than 90%) | 2 (weed kill ratio 20% or more, less than 40%) | 5 (weed kill ratio 90% or more, (practically complete withering)) | 5 (weed kill ratio 90% or more, (practically complete withering)) | 5 (weed kill ratio 90% or more, (practically complete withering)) | P (birds-eye speedwell) weedkilling efficacy grade [21]: 4 (weed kill ratio 70% or more, less than 90%); C (oval-leafed pondweed) weedkilling efficacy grade [22]: 5 (weed kill ratio 90% or more, (practically complete withering)); N (chickweed) weedkilling efficacy grade [23]: 3 (weed kill ratio 40% or more, less than 70%); L (redroot pigweed) weedkilling efficacy grade [24]: 0 (weed kill ratio 5% or less (practically no effect)); B (bulrush) weedkilling efficacy grade [25]: 5 (weed kill ratio 90% or more, (practically complete withering)); b (directly sown rice) effect on crop grade [26]: 3 (weed kill ratio 40% or more, less than 70%); d (soybean) effect on crop grade [27]: 0 (weed kill ratio 5% or less (practically no effect)); O (catchweed) weedkilling efficacy grade [28]: 1 (weed kill ratio 5% or more, less than 20%); A (barnyard grass) weedkilling efficacy grade [29]: 5 (weed kill ratio 90% or more, (practically complete withering)); H (black-grass) weedkilling efficacy grade [30]: 4 (weed kill ratio 70% or more, less than 90%); G (wild oat) weedkilling efficacy grade [31]: 3 (weed kill ratio 40% or more, less than 70%); b (directly sown rice) effect on crop grade [32]: 5 (weed kill ratio 90% or more, (practically complete withering)); O (catchweed) weedkilling efficacy grade [33]: 3 (weed kill ratio 40% or more, less than 70%); d (soybean) effect on crop grade [34]: 0 (weed kill ratio 5% or less (practically no effect)); A (barnyard grass) weedkilling efficacy grade [35]: 4 (weed kill ratio 70% or more, less than 90%); K (Indian mallow) weedkilling efficacy grade [36]: 0 (weed kill ratio 5% or less (practically no effect)); D (crabgrass) weedkilling efficacy grade [37]: 5 (weed kill ratio 90% or more, (practically complete withering)); f (beet) effect on crop grade [38]: 1 (weed kill ratio 5% or more, less than 20%); M (fig-leafed goosefoot) weedkilling efficacy grade [39]: 3 (weed kill ratio 40% or more, less than 70%)
